In patent publication US7550485B2, “Substituted N-heterocycle derivatives and methods of their use” (Wyeth, priority 2003, dated 2009):
Where a name gives a salt, the structure may show the parent alone.

Target: T1, hNET (Homo sapiens, UniProt P23975)
T1 construct: expressed in transfected cells
Experiment: Norepinephrine (NE) uptake assay in MDCK-Net6 cells stably transfected with human hNET
Format: cell-based
Details: [3H]NE uptake; for inhibition at 1 µM: MDCK-Net6, 1 μM test compound; for EC50: test range 1 to 10,000 nM
Outline: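 MDCK-Net6 cells preincubated 20 min at 37 °C with compound (1 to 10,000 nM) in HEPES buffer pH 7.4 with pargyline and ascorbate, then 5 min [3H]NE uptake (120 nM final). Lysed cells counted by scintillation; 1 μM desipramine defined minimum uptake; EC50 from logistic fit of pooled data.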

T1 sequence (P23975 whole entry): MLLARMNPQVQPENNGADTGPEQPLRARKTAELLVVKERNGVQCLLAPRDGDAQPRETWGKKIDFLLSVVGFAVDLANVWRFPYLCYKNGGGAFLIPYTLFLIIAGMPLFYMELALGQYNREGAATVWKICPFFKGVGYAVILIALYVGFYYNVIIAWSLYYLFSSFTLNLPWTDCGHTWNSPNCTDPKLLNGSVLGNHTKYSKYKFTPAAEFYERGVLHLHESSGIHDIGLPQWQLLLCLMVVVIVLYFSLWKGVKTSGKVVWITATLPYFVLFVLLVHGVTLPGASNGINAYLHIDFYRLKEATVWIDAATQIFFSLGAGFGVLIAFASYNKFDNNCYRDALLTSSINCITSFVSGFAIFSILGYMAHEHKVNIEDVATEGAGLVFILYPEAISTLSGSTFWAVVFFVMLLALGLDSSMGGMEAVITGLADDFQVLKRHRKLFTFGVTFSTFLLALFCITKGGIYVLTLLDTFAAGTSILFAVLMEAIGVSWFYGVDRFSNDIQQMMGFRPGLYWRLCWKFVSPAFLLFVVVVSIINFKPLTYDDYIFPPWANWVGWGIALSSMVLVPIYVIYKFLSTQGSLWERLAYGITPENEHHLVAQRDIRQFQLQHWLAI

Row | SMILES | inhibition at 1 µM [%] | EC50 [nM]
1 | OC1(C(CN2CCC(N3CCCCC3)CC2)c2cccc(Br)c2)CCCCC1 (centres unmarked) [Example 4, 1-[2-(1,4′-bipiperidin-1′-yl)-1-(3-bromophenyl)ethyl]cyclohexanol dihydrochloride] | 97 | 160
2 | OC1(C(CN2CCC(N3CCCC3)CC2)c2cccc(Cl)c2)CCCCC1 (centres unmarked) [Example 3, 1-[1-(3-chlorophenyl)-2-(4-pyrrolidin-1-ylpiperidin-1-yl)ethyl]cyclohexanol dihydrochloride] | 100 | 53
3 | OC1(C(CN2CCC(N3CCCC3)CC2)c2cccc(C(F)(F)F)c2)CCCCC1 (centres unmarked) [Example 26, 1-{2-(4-pyrrolidin-1-ylpiperidin-1-yl)-1-[3-(trifluoromethyl)phenyl]ethyl}cyclohexanol dihydrochloride] | 84 | 200
4 | NC1CCN(CC(c2cccc(Cl)c2)C2(O)CCCCC2)CC1 (centres unmarked) [Example 35, 1-[2-(4-aminopiperidin-1-yl)-1-(3-chlorophenyl)ethyl]cyclohexanol dihydrochloride] | 59 | 52
5 | OC1CCN(CC(c2cccc(OC(F)(F)F)c2)C2(O)CCCCC2)CC1 (centres unmarked) [Example 240, 1-{2-(1-hydroxycyclohexyl)-2-[3-(trifluoromethoxy)phenyl]ethyl}piperidin-4-ol hydrochloride] | 4.4 | 
6 | COc1ccc2cc([C@@H](CN3CCC(N4CCCCC4)CC3)C3(O)CCCCC3)ccc2c1 (single isomer, unassigned) [Example 353, dihydrochloride] | 67 | 320
7 | CNC1CCN(C[C@H](c2cccc(Cl)c2)C2CCCCC2)CC1 (single isomer, unassigned) [Example 355, dihydrochloride] | 71 | 730
8 | OC1(C(CN2CCC(N3CCCCC3)CC2)c2cccc(C(F)(F)F)c2)CCCCC1 (centres unmarked) [Example 20, 1-{2-(1,4′-bipiperidin-1′-yl)-1-[3-(trifluoromethyl)phenyl]ethyl}cyclohexanol dihydrochloride] | 88 | 260
9 | COc1ccc2cc([C@H](CN3CCC(N4CCCCC4)CC3)C3(O)CCCCC3)ccc2c1 (single isomer, unassigned) [Example 354, dihydrochloride] | 82 | 400
10 | CN[C@@H]1CCN(CC(c2cccc(Cl)c2)C2(O)CCCCC2)C1 (stereo partly drawn) [Example 200, 1-{1-(3-chlorophenyl)-2-[(3R)-3-(methylamino)pyrrolidin-1-yl]ethyl}cyclohexanol dihydrochloride] | 54.1 | 
11 | CN(C)C1CCN(CC(c2cccc(Cl)c2)C(C)(C)O)CC1 (centres unmarked) [Example 274, 3-(3-chlorophenyl)-4-[4-(dimethylamino)piperidin-1-yl]-2-methylbutan-2-ol dihydrochloride] | 50 | 
12 | N[C@H]1CCN(CC(c2cccc(C(F)(F)F)c2)C2(O)CCCCC2)C1 (stereo partly drawn) [Example 221, 1-{2-[(3S)-3-aminopyrrolidin-1-yl]-1-[3-(trifluoromethyl)phenyl]ethyl}cyclohexanol dihydrochloride] | 63.9 | 
13 | N[C@@H]1CCCN(CC(c2ccc(OCc3ccccc3)c(Cl)c2)C2(O)CCCCC2)C1 (stereo partly drawn) [Example 193, 1-{2-[(3R)-3-aminopiperidin-1-yl]-1-[4-(benzyloxy)-3-chlorophenyl]ethyl}cyclohexanol dihydrochloride] | 87.2 | 
14 | CN[C@H]1CCN(CC(c2cccc(C(F)(F)F)c2)C2(O)CCCCC2)C1 (stereo partly drawn) [Example 220, 1-{2-[(3S)-3-(methylamino)pyrrolidin-1-yl]-1-[3-(trifluoromethyl)phenyl]ethyl}cyclohexanol dihydrochloride] | 27.3 | 
15 | OC1(C(CN2CCC(N3CCOCC3)CC2)c2cccc(OC(F)(F)F)c2)CCCCC1 (centres unmarked) [Example 361, 1-{2-(4-morpholin-4-ylpiperidin-1-yl)-1-[3-(trifluoromethoxy)phenyl]ethyl}cyclohexanol dihydrochloride] | 67 | 640
16 | COC1CCN(CC(c2ccc(OCc3ccccc3)c(Cl)c2)C2(O)CCCCC2)CC1 (centres unmarked) [Example 242, 1-[1-[4-(benzyloxy)-3-chlorophenyl]-2-(4-methoxypiperidin-1-yl)ethyl]cyclohexanol hydrochloride] | 2 | 

The next lines start with the values.

Row | inhibition at 1 µM [%] | EC50 [nM] | SMILES
17 | 70 | 50 | OC1(C(CN2CCC(N3CCCC3)CC2)c2ccc3ccccc3c2)CCCCC1 (centres unmarked) [Example 31, 1-[1-(2-naphthyl)-2-(4-pyrrolidin-1-ylpiperidin-1-yl)ethyl]cyclohexanol dihydrochloride]
18 | 65.7 |  | N[C@H]1CCN(CC(c2cccc3ccccc23)C2(O)CCCCC2)C1 (stereo partly drawn) [Example 207, 1-[2-[(3S)-3-aminopyrrolidin-1-yl]-1-(1-naphthyl)ethyl]cyclohexanol dihydrochloride]
19 | 30 |  | CN[C@@H]1CCN(CC(c2ccc3ccccc3c2)C2(O)CCCCC2)C1 (stereo partly drawn) [Example 376, 1-[2-[(3R)-3-(methylamino)pyrrolidin-1-yl]-1-(2-naphthyl)ethyl]cyclohexanol dihydrochloride]
20 | 88 | 220 | CN(C)C1CCN(C[C@H](c2cccc(OC(F)(F)F)c2)C2(O)CCCCC2)CC1 [Example 360, 1-{(1S)-2-[4-(dimethylamino)piperidin-1-yl]-1-[3-(trifluoromethoxy)phenyl]ethyl}cyclohexanol dihydrochloride]
21 | 76 |  | CN(C)[C@H]1CCCN(CC(c2ccc(OCc3ccccc3)c(Cl)c2)C2(O)CCCCC2)C1 (stereo partly drawn) [Example 197, 1-{1-[4-(benzyloxy)-3-chlorophenyl]-2-[(3S)-3-(dimethylamino)piperidin-1-yl]ethyl}cyclohexanol dihydrochloride]
22 | 75.2 |  | NC1CCN(CC(c2cccc(Oc3ccccc3)c2)C2(O)CCCCC2)CC1 (centres unmarked) [Example 315, 1-[2-(4-aminopiperidin-1-yl)-1-(3-phenoxyphenyl)ethyl]cyclohexanol dihydrochloride]
23 | 79 |  | COc1cc(C(CN2CCC(N(C)C)CC2)C2(O)CCCCC2)ccc1OCc1ccccc1 (centres unmarked) [Example 451, 1-{1-[4-(benzyloxy)-3-methoxyphenyl]-2-[4-(dimethylamino)piperidin-1-yl]ethyl}cyclohexanol dihydrochloride]
24 | 39 |  | CN(C)[C@@H]1CCN(CC(c2ccc3ccccc3c2)C2(O)CCCCC2)C1 (stereo partly drawn) [Example 375, 1-[2-[(3R)-3-(dimethylamino)pyrrolidin-1-yl]-1-(2-naphthyl)ethyl]cyclohexanol dihydrochloride]
25 | 88.1 |  | CN(C)C1CCN(CC(c2ccc(Cl)c(Cl)c2)C2(O)CCCCC2)CC1 (centres unmarked) [Example 320, 1-{1-(3,4-dichlorophenyl)-2-[4-(dimethylamino)piperidin-1-yl]ethyl}cyclohexanol dihydrochloride]
26 | 20 |  | N[C@@H]1CCN(CC(c2ccc(OCc3ccccc3)cc2)C2(O)CCCCC2)C1 (stereo partly drawn) [Example 380, 1-{2-[(3R)-3-aminopyrrolidin-1-yl]-1-[4-(benzyloxy)phenyl]ethyl}cyclohexanol dihydrochloride]
27 | 95.6 |  | CN(C)[C@H]1CCN(CC(c2ccc(OCc3ccccc3)c(Cl)c2)C2(O)CCCCC2)C1 (stereo partly drawn) [Example 211, 1-{1-[4-(benzyloxy)-3-chlorophenyl]-2-[(3S)-3-(dimethylamino)pyrrolidin-1-yl]ethyl}cyclohexanol dihydrochloride]
